The text below walks through data of US9403833B2, “Carboxamide derivatives” (Novartis AG, priority 2014, dated 2016).

Smurf-1, sequence (Q9HCE7 whole entry): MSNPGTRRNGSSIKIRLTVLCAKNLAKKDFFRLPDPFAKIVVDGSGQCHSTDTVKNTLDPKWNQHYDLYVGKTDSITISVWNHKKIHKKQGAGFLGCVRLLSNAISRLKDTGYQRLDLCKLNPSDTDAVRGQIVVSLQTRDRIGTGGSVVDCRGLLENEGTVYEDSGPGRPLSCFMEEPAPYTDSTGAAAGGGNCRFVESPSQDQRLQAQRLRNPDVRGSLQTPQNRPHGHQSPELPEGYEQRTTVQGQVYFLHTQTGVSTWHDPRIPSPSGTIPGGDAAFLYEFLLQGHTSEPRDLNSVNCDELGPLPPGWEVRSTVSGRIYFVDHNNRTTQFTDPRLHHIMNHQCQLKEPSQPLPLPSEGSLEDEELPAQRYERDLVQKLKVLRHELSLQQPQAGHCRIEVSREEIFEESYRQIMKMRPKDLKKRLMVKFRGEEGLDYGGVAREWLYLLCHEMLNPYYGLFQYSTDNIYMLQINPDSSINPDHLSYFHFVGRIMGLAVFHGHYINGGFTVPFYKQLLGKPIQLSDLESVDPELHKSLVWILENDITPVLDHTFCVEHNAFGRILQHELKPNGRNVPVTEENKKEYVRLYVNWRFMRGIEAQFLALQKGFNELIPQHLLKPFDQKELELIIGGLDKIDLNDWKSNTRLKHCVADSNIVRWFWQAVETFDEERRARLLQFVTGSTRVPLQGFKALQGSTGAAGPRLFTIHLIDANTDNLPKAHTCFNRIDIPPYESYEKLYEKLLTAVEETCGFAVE

This experiment addresses Smurf-1 (Homo sapiens (Human), UniProt Q9HCE7). The experiment is described as follows: HECT E3 ligase autoubiquitinylation TR-FRET assay (Smurf-1). The format is biochemical. As to conditions: 8-point dose-response, 3 nM to 10 uM, 45 min incubation. The source says: To determine the HECT E3 ligase selectivity of the compounds, a panel of biochemical HECT E3 ligase autoubiquitinylation assays was employed (Smurf-1, Smurf-2, WWP1, WWP2, ITCH, Nedd4, Nedd4L and E6AP). The conjugation of ubiquitin to a protein substrate is a multistep process. In an initial ATP-requiring step, a thioester bond is formed between the carboxyl terminus of ubiquitin and an internal cystein residue of the ubiquitin-activating enzyme (E1). Activated ubiquitin is then transferred to a specific cystein residue of an ubiquitin-conjugating enzyme (E2). E2s donate ubiquitin to a HECT E3 ligase (E3) from which it is transferred to the substrate protein. HECT E3 ligases can auto-ubiquitinylate. This event is detected in the TR-FRET (Time-Resolved Fluorescence Resonance Energy Transfer) assay used in this panel. The reaction mix contains E1, E2, tagged-E3, biotin-conjugated ubiquitin, the compound and ATP in a suitable buffer and is incubated for 45 minutes to allow auto-ubiquitinylation of the E3 ligase. To measure the extent of ubiquitinylated E3 ligase by TR-FRET, the donor fluorophore Europium cryptate (Eu3+ cryptate), conjugated to streptavidin which subsequently binds to biotinylated ubiquitin, and the modified allophycocyanin XL665 (HTRF® primary acceptor fluorophore) coupled to a tag-specific antibody (HA, His or GST), which recognizes the respective E3 ligase fusion proteins, are added after the reaction is complete. When these two fluorophores are brought together by a biomolecular interaction (in this case ubiquitinylation of the E3 ligase), a portion of the energy captured by the Cryptate during excitation is released through fluorescence emission at 620 nm, while the remaining energy is transferred to XL665. This energy is then released by XL665 as specific fluorescence at 665 nm. Light at 665 nm is emitted only through FRET with Europium.
Test and reference compounds are prepared at 180× [final] in 90% DMSO, and diluted 1:3 in 90% DMSO.
For the biochemical assay panel, 50 nl of the test compounds, reference compounds and buffer/DMSO control are transferred to the respective wells of a 384-well white GREINER “SMALL VOLUME” PS plate. The assay panel is run at room temperature on a Biomek FX liquid handling workstation. To the assay plates containing 50 nl compound or control solutions in 90% DMSO, 4.5 ul of E3 ligase solution were added per well, followed by 4.5 ul of the pre-incubated E1/E2/Ub mix or the pre-diluted ubiquitin (LOW control). Plates are shaken vigorously after each addition. In this assay the compound concentrations range from 3 nM to 10 uM in an 8-point dose-response curve.
After 45 min of incubation the ubiquitinylation reactions were stopped by adding 4.5 ul 2 mM NEM, immediately followed by 4.5 ul of a detection solution including the XL665-labeled antibody and the streptavidin-coupled europium to give a total volume of 18 ul. After an incubation time of 45 min in the dark, the plates are transferred into the Pherastar fluorescence reader to measure the TR-FRET signal.
In general, IC50 refers to the concentration at which inhibition is half-maximal. A lower IC50 goes with greater potency in that assay. In the case of `COc1ccc(-n2nnc(C(=O)Nc3c(C)n(C)n(C4CCCCC4)c3=O)c2C)c(C(F)(F)F)c1` [Example 3, N-(2-Cyclohexyl-1,5-dimethyl-3-oxo-2,3-dihydro-1H-pyrazol-4-yl)-1-(4-methoxy-2-(trifluoromethyl)phenyl)-5-methyl-1H-1,2,3-triazole-4-carboxamide], inhibition was half-maximal at 890 nM (IC50). This counts as sub-micromolar.
Consider `Cc1c(C(=O)Nc2c(C)n(C)n(-c3ccccc3F)c2=O)nnn1-c1ccc(Cl)cc1` [Example 8, 1-(4-Chlorophenyl)-N-(2-(2-fluorophenyl)-1,5-dimethyl-3-oxo-2,3-dihydro-1H-pyrazol-4-yl)-5-methyl-1H-1,2,3-triazole-4-carboxamide], for which the IC50 worked out at 2800 nM. This IC50 lies about 3.1-fold higher than the previous one.
The same measure for `Cc1c(C(=O)Nc2c(C)n(C)n(C3CCCCC3)c2=O)nnn1-c1ccc(Cl)cc1Cl` [Example 2, N-(2-Cyclohexyl-1,5-dimethyl-3-oxo-2,3-dihydro-1H-pyrazol-4-yl)-1-(2,4-dichlorophenyl)-5-methyl-1H-1,2,3-triazole-4-carboxamide]: 570 nM.
`Cc1c(C(=O)Nc2c(C)n(C)n(-c3ccccc3F)c2=O)nnn1-c1ccc(OC(F)(F)F)cc1Cl` [Example 9, 1-(2-Chloro-4-(trifluoromethoxy)phenyl)-N-(2-(2-fluorophenyl)-1,5-dimethyl-3-oxo-2,3-dihydro-1H-pyrazol-4-yl)-5-methyl-1H-1,2,3-triazole-4-carboxamide] returned an IC50 of 4400 nM. This IC50 is about 7.7-fold higher than that of the compound before.
On to `[2H]C([2H])([2H])n1c(C)c(NC(=O)c2nnn(-c3ccc(C4CC4)cc3Cl)c2C)c(=O)n1C1CCCCC1` [Example 12, 1-(2-Chloro-4-cyclopropylphenyl)-N-(2-cyclohexyl-1-methyl-d3,5-methyl-3-oxo-2,3-dihydro-1H-pyrazol-4-yl)-5-methyl-1H-1,2,3-triazole-4-carboxamide], for which inhibition was half-maximal at 98 nM (IC50).
Compound `Cc1c(C(=O)Nc2c(C)n(C)n(C3CCCCC3)c2=O)nnn1-c1ccc(F)cc1C1CC1` [Example 15, N-(2-Cyclohexyl-1,5-dimethyl-3-oxo-2,3-dihydro-1H-pyrazol-4-yl)-1-(2-cyclopropyl-4-fluorophenyl)-5-methyl-1H-1,2,3-triazole-4-carboxamide] displayed a half-maximal inhibitory concentration (IC50) of 4500 nM.
To `Cc1c(C(=O)Nc2c(C)n(C)n(C3CCCCC3)c2=O)nnn1-c1ccc(Cl)cc1C1CC1` [Example 14, 1-(4-Chloro-2-cyclopropylphenyl)-N-(2-cyclohexyl-1,5-dimethyl-3-oxo-2,3-dihydro-1H-pyrazol-4-yl)-5-methyl-1H-1,2,3-triazole-4-carboxamide] belongs 230 nM.
Compound `Cc1c(C(=O)Nc2c(C)n(C)n(C3CCCCC3)c2=O)nnn1-c1ccc(Cl)cc1` [Example 6, 1-(4-Chlorophenyl)-N-(2-cyclohexyl-1,5-dimethyl-3-oxo-2,3-dihydro-1H-pyrazol-4-yl)-5-methyl-1H-1,2,3-triazole-4-carboxamide] returned an IC50 of 8200 nM.
As for `Cc1c(C(=O)Nc2c(C)n(C)n(C3CCCCC3)c2=O)nnn1-c1ccc(C2CC2)cc1Cl` [Example 10, 1-(2-Chloro-4-cyclopropylphenyl)-N-(2-cyclohexyl-1,5-dimethyl-3-oxo-2,3-dihydro-1H-pyrazol-4-yl)-5-methyl-1H-1,2,3-triazole-4-carboxamide], the IC50 turned out to be 92 nM.
`Cc1c(C(=O)Nc2c(C)n(C)n(-c3ccccc3F)c2=O)nnn1-c1ccc(C2CC2)cc1Cl` [Example 11, 1-(2-Chloro-4-cyclopropylphenyl)-N-(2-(2-fluorophenyl)-1,5-dimethyl-3-oxo-2,3-dihydro-1H-pyrazol-4-yl)-5-methyl-1H-1,2,3-triazole-4-carboxamide] displayed an IC50 of 1000 nM. This IC50 is about 11-fold higher than that of the compound before.
To `Cc1c(C(=O)Nc2c(C)n(C)n(-c3ccccc3F)c2=O)nnn1-c1ccc(Cl)cc1Cl` [Example 7, 1-(2,4-Dichlorophenyl)-N-(2-(2-fluorophenyl)-1,5-dimethyl-3-oxo-2,3-dihydro-1H-pyrazol-4-yl)-5-methyl-1H-1,2,3-triazole-4-carboxamide] belongs 5800 nM.
Consider `COc1ccc(-n2nnc(C(=O)Nc3c(C)n(C)n(C4CCCCC4)c3=O)c2C)cc1` [Example 17, N-(2-Cyclohexyl-1,5-dimethyl-3-oxo-2,3-dihydro-1H-pyrazol-4-yl)-1-(4-methoxyphenyl)-5-methyl-1H-1,2,3-triazole-4-carboxamide], for which the IC50 was determined as 3100 nM.
Take `COc1ccc(-n2nnc(C(=O)Nc3c(C)n(C)n(C4CCCCC4)c3=O)c2C)c(Cl)c1` [Example 1, 1-(2-Chloro-4-methoxyphenyl)-N-(2-cyclohexyl-1,5-dimethyl-3-oxo-2,3-dihydro-1H-pyrazol-4-yl)-5-methyl-1H-1,2,3-triazole-4-carboxamide]: 440 nM corresponded to half-maximal inhibition (IC50). This IC50 lies about 7-fold lower than the previous one.
`Cc1c(C(=O)Nc2c(C)n(C)n(C3CCCCC3)c2=O)nnn1-c1ccc(OC(F)(F)F)cc1Cl` [Example 5, 1-(2-Chloro-4-(trifluoromethoxy)phenyl)-N-(2-cyclohexyl-1,5-dimethyl-3-oxo-2,3-dihydro-1H-pyrazol-4-yl)-5-methyl-1H-1,2,3-triazole-4-carboxamide] displayed an IC50 of 550 nM.
As for `Cc1c(C(=O)Nc2c(C)n(C)n(-c3ccccc3F)c2=O)nnn1-c1ccc(Cl)cc1C1CC1` [Example 13, 1-(4-Chloro-2-cyclopropylphenyl)-N-(2-(2-fluorophenyl)-1,5-dimethyl-3-oxo-2,3-dihydro-1H-pyrazol-4-yl)-5-methyl-1H-1,2,3-triazole-4-carboxamide], the IC50 came out at 3300 nM.
To `Cc1c(NC(=O)c2nnn3c2CCCc2cc(OC(F)(F)F)ccc2-3)c(=O)n(C2CCCCC2)n1C` [Example 16, N-(2-Cyclohexyl-1,5-dimethyl-3-oxo-2,3-dihydro-1H-pyrazol-4-yl)-8-(trifluoromethoxy)-5,6-dihydro-4H-benzo[f][1,2,3]triazolo[1,5-a]azepine-3-carboxamide] belongs 55 nM.
